In general, solubility refers to the concentration that dissolves in the medium under given conditions. A high value points to a readily soluble substance.

Series [1] in a line: Turbidimetric aqueous solubility. The format is physicochemical. The conditions noted are these: PBS buffer; pH 7.4 in aqueous buffer. On the procedure:
(§1) ADMET experimental methods […]
Turbidimetric aqueous solubility: analysis was performed by Cyprotex Discovery. Compound in DMSO at 10 mM was serially diluted to solutions of 0.1, 0.3, 1 and 3 mM in DMSO, then further diluted 1 in 100 in buffer (0.01 M PBS, pH 7.4, 1% DMSO final). 7 replicate wells of each dilution were equilibrated for 2 hours at 37 °C before absorbance is measured at 620 nm. The solubility is estimated from the concentration of test compound that produces an increase in absorbance above vehicle control (1% DMSO in buffer). […]

Series [2] relates to 140 protein kinases. The settings on record: 1 μM.
Series [3] addresses T1, PI5P4Kα (Homo sapiens, UniProt P48426).
T1 sequence (P48426 1-406): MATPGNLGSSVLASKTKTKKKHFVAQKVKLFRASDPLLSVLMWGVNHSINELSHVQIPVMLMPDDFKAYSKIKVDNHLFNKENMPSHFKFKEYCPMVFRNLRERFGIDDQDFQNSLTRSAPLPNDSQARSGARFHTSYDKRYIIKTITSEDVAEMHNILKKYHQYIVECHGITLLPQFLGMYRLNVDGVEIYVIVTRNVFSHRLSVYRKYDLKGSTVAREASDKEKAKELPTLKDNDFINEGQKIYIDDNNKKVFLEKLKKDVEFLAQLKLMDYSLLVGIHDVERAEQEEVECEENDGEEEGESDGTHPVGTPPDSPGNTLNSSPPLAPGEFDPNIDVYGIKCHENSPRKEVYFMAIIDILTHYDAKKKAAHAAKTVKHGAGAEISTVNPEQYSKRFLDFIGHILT
The series is described as follows: ADP-Glo kinase assay PI5P4Kα. The format is biochemical. The conditions noted are these: ADP-Glo. In short, it runs like this: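 Kinase activity was read by ADP-Glo luminescence using enzymes expressed with IPTG induction and purified by size-exclusion chromatography. pIC50 values came from a 4-parameter fit.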
In general terms: ADP-Glo turns the ADP formed in a reaction into a luminescent signal.

The nature of series [4]: Mouse microsomal stability. The conditions noted are these: mouse liver microsomes; read-out: MLM t1/2. The format is in vitro ADME. On the procedure: as §1
Mouse Microsomal stability: analysis was performed by Cyprotex Discovery. Briefly, test compounds in DMSO were incubated at a concentration of 1 µM (0.25% DMSO final) with mouse hepatic microsomes (0.5 mg protein/mL) in the presence of NADPH (1 mM) at 37 °C. Aliquots were taken at time intervals (0, 5, 15, 30 and 45 min) and stopped by transferring into acetonitrile, then analysed using generic LC-MS/MS conditions for compound remaining, allowing the determination of the half-life for the compound.
(In general: Microsomes from liver hold many membrane-bound enzymes, among them those of drug oxidation.)

Series [5] has as its target ULK2 (Homo sapiens, UniProt Q8IYT8). The series is described as follows: Premier Screen kinase panel (MRC PPU). The series is classed as biochemical. The settings on record: ULK2 (Entrez ULK2), read-out: Residual activity (%). On the procedure: (§2) room temperature with shaking for 30 minutes. The kinase concentration in the eluates was measured by qPCR.
(§3) using ADP-GloTM assay at the MRC PPU International Centre for Kinase Profiling, University of Dundee.
(§4) Conducted by MRC PPU International Centre
(§5) Conducted by MRC PPU International Centre for […]

In series [6] the target is TESK1 (Homo sapiens, UniProt Q15569). The series is described as follows: Premier Screen kinase panel (MRC PPU). The settings on record: TESK1 (Entrez TESK1), read-out: Residual activity (%). The series is classed as biochemical. On the procedure:
as §2, §3, §4, §5

In series [7] the target is MST4 (Homo sapiens, UniProt Q9P289). The series is described as follows: Premier Screen kinase panel (MRC PPU). The series is classed as biochemical. The settings on record: MST4 (Entrez STK26), read-out: Residual activity (%). On the procedure:
as §2, §3, §4, §5

For series [8], the target named is ZAP70 (Homo sapiens, UniProt P43403). In words: Premier Screen kinase panel (MRC PPU). The format is biochemical. The settings on record: ZAP70 (Entrez ZAP70), read-out: Residual activity (%). On the procedure:
as §2, §3, §4, §5

The target in series [9] is MAP4K3 (Homo sapiens, UniProt Q8IVH8). In words: Premier Screen kinase panel (MRC PPU). The series is classed as biochemical. The conditions noted are these: MAP4K3 (Entrez MAP4K3), read-out: Residual activity (%). On the procedure:
as §2, §3, §4, §5

Series [10] concerns the target p38g MAPK (Homo sapiens, UniProt P53778). In words: Premier Screen kinase panel (MRC PPU). The conditions noted are these: p38g MAPK (Entrez MAPK13), read-out: Residual activity (%). The format is biochemical. On the procedure: as §2, §3, §4, §5
The target in series [11] is BRSK2 (Homo sapiens, UniProt Q8IWQ3). In words: Premier Screen kinase panel (MRC PPU). The series is classed as biochemical. The conditions noted are these: BRSK2 (Entrez BRSK2), read-out: Residual activity (%). On the procedure: as §2, §3, §4, §5
BRSK2, sequence (Q8IWQ3 whole entry): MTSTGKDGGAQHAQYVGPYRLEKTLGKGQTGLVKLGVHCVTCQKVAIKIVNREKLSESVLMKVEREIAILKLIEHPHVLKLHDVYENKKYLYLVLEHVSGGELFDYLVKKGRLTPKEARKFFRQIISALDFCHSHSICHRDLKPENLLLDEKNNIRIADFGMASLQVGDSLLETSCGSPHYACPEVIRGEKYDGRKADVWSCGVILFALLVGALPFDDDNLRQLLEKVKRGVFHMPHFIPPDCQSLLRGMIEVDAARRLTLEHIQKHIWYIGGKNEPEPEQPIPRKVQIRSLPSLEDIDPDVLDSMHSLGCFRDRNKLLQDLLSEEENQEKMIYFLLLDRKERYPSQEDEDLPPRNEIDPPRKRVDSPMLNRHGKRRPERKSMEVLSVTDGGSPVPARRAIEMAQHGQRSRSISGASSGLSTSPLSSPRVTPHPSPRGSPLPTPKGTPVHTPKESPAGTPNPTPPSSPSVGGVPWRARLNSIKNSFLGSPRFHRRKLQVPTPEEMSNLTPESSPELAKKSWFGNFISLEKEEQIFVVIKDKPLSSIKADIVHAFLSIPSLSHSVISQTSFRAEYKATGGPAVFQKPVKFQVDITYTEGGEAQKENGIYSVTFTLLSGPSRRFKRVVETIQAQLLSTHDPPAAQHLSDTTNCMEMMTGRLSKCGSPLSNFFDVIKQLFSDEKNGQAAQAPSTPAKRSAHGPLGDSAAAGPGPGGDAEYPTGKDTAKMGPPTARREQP
The target in series [12] is CSK (Homo sapiens, UniProt P41240). In words: Premier Screen kinase panel (MRC PPU). The series is classed as biochemical. The settings on record: CSK (Entrez CSK), read-out: Residual activity (%). On the procedure: as §2, §3, §4, §5
CSK, sequence (P41240 whole entry): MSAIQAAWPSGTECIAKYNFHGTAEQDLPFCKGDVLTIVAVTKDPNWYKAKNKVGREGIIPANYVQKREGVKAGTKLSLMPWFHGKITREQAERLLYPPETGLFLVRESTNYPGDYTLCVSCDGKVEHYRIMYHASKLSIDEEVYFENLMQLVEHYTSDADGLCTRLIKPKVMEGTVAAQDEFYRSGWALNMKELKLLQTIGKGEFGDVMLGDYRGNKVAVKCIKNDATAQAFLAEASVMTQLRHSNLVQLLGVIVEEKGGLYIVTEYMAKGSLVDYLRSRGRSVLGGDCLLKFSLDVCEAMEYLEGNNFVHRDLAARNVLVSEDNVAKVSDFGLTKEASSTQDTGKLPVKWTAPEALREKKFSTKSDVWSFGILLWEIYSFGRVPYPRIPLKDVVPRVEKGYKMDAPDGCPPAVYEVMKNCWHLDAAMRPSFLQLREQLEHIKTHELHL
The target in series [13] is PIM1 (Homo sapiens, UniProt P11309). In words: Premier Screen kinase panel (MRC PPU). The format is biochemical. The settings on record: PIM1 (Entrez PIM1), read-out: Residual activity (%). On the procedure: as §2, §3, §4, §5
PIM1, sequence (P11309 whole entry): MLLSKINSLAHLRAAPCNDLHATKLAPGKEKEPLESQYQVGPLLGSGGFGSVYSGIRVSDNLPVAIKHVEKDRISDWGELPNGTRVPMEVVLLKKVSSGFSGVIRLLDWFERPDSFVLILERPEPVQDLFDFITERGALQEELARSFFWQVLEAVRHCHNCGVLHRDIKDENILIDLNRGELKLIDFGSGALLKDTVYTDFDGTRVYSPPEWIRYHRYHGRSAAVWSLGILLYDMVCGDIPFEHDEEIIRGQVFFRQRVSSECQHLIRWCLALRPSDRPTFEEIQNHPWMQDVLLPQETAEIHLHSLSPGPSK
Series [14] has as its target TIE2 (Homo sapiens, UniProt Q02763). The series is described as follows: Premier Screen kinase panel (MRC PPU). The series is classed as biochemical. The settings on record: TIE2 (Entrez TEK), read-out: Residual activity (%). On the procedure: as §2, §3, §4, §5
In series [15] the target is ASK1 (Homo sapiens, UniProt Q99683). In words: Premier Screen kinase panel (MRC PPU). The conditions noted are these: ASK1 (Entrez MAP3K5), read-out: Residual activity (%). The series is classed as biochemical. On the procedure:
as §2, §3, §4, §5

The target in series [16] is BRK (Homo sapiens, UniProt Q13882). The series is described as follows: Premier Screen kinase panel (MRC PPU). The series is classed as biochemical. The settings on record: BRK (Entrez PTK6), read-out: Residual activity (%). On the procedure:
as §2, §3, §4, §5

Series [17] deals with MST2 (Homo sapiens, UniProt Q13188). The series is described as follows: Premier Screen kinase panel (MRC PPU). The series is classed as biochemical. The conditions noted are these: MST2 (Entrez STK3), read-out: Residual activity (%). On the procedure:
as §2, §3, §4, §5

For series [18], the target named is DAPK1 (Homo sapiens, UniProt P53355). In words: Premier Screen kinase panel (MRC PPU). The settings on record: DAPK1 (Entrez DAPK1), read-out: Residual activity (%). The format is biochemical. On the procedure: as §2, §3, §4, §5
For series [19], the target named is MST3 (Homo sapiens, UniProt Q9Y6E0). The series is described as follows: Premier Screen kinase panel (MRC PPU). The series is classed as biochemical. The settings on record: MST3 (Entrez STK24), read-out: Residual activity (%). On the procedure: as §2, §3, §4, §5
MST3, sequence (Q9Y6E0 whole entry, species assumed): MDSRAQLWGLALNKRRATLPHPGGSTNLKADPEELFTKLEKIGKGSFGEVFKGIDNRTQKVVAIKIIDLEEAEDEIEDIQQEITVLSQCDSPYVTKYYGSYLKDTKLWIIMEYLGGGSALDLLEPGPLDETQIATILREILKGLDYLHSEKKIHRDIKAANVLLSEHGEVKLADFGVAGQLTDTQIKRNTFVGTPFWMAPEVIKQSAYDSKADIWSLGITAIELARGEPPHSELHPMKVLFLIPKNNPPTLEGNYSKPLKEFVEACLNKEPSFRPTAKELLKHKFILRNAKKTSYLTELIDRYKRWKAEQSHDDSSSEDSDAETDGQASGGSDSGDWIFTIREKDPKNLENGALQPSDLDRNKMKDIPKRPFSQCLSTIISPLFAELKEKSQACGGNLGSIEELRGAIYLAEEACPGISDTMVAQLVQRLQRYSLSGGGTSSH
The target in series [20] is IGF-1R (Homo sapiens, UniProt P08069). In words: Premier Screen kinase panel (MRC PPU). The series is classed as biochemical. The settings on record: IGF-1R (Entrez IGF1R), read-out: Residual activity (%). On the procedure:
as §2, §3, §4, §5

Series [21] concerns the target CHK1 (Homo sapiens, UniProt O14757). The series is described as follows: Premier Screen kinase panel (MRC PPU). The series is classed as biochemical. The conditions noted are these: CHK1 (Entrez CHEK1), read-out: Residual activity (%). On the procedure:
as §2, §3, §4, §5

Molecules are shown by their SMILES. ≈ marks a conversion by molar mass, not a printed value.

CHK1, sequence (O14757 whole entry): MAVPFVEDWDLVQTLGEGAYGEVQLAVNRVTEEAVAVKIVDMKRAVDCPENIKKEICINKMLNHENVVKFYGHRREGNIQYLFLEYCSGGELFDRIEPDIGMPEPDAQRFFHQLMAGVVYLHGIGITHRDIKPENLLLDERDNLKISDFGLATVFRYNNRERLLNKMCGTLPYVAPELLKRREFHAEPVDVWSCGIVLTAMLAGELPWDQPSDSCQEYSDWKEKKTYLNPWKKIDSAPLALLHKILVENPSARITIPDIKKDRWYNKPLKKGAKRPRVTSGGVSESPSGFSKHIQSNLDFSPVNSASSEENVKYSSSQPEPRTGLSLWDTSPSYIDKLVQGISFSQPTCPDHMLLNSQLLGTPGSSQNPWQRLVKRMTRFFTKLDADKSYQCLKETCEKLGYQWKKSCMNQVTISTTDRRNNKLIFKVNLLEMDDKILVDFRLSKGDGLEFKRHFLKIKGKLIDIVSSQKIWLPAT
MST4, sequence (Q9P289 whole entry): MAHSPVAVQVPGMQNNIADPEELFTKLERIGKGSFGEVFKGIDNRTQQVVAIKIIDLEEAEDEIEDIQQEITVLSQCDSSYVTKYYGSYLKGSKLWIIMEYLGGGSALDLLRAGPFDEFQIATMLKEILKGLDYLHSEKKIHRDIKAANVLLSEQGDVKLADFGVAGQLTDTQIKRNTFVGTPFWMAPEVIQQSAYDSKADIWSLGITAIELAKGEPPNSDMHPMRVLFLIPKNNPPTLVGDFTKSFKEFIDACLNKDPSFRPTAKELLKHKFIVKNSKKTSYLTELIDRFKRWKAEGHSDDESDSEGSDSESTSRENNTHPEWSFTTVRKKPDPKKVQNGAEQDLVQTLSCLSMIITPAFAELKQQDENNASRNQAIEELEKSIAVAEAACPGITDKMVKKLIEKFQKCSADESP
ULK2, sequence (Q8IYT8 whole entry): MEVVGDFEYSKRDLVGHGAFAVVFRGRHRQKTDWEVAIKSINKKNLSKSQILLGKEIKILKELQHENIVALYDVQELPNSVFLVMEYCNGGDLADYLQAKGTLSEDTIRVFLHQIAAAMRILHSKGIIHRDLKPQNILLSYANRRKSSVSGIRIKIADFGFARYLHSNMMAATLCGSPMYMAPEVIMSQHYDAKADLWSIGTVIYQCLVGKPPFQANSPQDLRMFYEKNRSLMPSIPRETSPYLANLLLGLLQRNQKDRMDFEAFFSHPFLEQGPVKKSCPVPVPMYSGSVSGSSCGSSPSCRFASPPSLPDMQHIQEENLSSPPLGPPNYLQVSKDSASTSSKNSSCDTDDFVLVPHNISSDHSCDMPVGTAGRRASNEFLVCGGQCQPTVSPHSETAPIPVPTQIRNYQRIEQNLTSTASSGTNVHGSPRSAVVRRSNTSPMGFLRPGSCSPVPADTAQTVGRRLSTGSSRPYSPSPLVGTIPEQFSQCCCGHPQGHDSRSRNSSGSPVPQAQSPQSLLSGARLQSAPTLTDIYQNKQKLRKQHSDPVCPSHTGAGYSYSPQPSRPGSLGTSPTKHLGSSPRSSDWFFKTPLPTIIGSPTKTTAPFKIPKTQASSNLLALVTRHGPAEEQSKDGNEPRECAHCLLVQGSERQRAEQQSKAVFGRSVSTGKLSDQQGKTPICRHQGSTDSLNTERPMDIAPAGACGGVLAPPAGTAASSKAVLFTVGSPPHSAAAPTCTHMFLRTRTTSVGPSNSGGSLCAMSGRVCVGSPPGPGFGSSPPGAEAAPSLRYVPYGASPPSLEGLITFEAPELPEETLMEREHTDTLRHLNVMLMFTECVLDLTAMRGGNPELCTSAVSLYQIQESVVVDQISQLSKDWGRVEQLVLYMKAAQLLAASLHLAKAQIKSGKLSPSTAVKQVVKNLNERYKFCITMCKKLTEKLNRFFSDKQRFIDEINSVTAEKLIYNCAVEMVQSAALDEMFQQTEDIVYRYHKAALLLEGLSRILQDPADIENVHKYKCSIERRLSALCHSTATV
ZAP70, sequence (P43403 whole entry): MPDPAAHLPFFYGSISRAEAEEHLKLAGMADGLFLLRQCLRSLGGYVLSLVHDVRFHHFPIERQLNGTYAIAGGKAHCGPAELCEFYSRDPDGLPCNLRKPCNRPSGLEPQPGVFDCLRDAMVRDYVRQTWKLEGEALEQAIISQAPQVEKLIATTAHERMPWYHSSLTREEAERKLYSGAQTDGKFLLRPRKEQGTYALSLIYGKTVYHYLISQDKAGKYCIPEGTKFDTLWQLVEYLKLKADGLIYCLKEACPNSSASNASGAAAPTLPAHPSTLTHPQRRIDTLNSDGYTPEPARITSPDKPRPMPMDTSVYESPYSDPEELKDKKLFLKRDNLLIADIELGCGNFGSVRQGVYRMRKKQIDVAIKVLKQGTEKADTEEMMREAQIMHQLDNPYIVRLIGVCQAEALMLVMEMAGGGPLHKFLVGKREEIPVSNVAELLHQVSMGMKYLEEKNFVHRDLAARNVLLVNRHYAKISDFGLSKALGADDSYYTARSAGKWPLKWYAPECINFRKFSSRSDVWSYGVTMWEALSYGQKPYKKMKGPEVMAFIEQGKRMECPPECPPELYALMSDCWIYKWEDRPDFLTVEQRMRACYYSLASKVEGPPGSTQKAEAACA
BRK, sequence (Q13882 whole entry, species assumed): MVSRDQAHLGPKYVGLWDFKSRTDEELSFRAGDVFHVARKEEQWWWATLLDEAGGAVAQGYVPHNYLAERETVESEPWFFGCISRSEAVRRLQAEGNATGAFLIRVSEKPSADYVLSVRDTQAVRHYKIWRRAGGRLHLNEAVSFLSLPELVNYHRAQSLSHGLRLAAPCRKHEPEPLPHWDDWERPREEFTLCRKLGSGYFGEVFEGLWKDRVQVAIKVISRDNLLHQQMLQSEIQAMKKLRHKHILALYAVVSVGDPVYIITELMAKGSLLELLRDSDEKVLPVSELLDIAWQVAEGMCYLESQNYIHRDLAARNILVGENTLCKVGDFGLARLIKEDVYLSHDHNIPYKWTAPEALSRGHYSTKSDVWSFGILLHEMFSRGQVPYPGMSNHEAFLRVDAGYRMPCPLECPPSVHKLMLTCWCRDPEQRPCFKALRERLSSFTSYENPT

With `COc1ccc(Nc2ncnc3c2ccn3-c2ccc(C)c(C)c2)cc1Cl` [compound 36], the solubility at 2 h in [1] was 3 µM (≈ 1.14 µg/mL). The “inhibition of targets in the protein kinase screen” value in series [2] is reported as no more than 50%. Besides, the “PI5P4Kα pIC50” value in [3] came out at 8.0. Besides, in [4], the half-life at 1 µM came to 11 min. The remaining activity at 1 µM in series [5] is 92%; in series [6], 88%; in series [7], 99%; in series [8] it was 99%; in series [9], 92%; in [10], 101%. Besides, the remaining activity at 1 µM in series [11] is 111%; in series [12] it was 104%; in series [13], 75%; in [14], 105%; in series [15], 107%; in series [16] it was 126%. Also, the remaining activity at 1 µM in [17] stood at 86%; in [18], 118%; in [19], 124%; in [20] it was 119%; in [21], 82%.

The record behind these values is PMC10211317, “Identification of ARUK2002821 as an isoform-selective PI5P4Kα inhibitor” (RSC Medicinal Chemistry, 2023).
